The values below come from ChEMBL document CHEMBL5331113 (J Med Chem, 2023).

A short description of experiment [1]: Competitive binding affinity to humanized mouse succinate receptor 1 N181.31E/K2697.32N/G84EL1W mutant assessed as inhibition constant incubated for 5 mins in the presence of TUG-2384 by BRET assay. Background: In BRET a luciferase serves as donor, and the signal depends on an acceptor being close.
The target in another experiment is T1, Succinate receptor 1 (Homo sapiens, UniProt Q9BXA5).
T1 sequence (Q9BXA5 whole entry): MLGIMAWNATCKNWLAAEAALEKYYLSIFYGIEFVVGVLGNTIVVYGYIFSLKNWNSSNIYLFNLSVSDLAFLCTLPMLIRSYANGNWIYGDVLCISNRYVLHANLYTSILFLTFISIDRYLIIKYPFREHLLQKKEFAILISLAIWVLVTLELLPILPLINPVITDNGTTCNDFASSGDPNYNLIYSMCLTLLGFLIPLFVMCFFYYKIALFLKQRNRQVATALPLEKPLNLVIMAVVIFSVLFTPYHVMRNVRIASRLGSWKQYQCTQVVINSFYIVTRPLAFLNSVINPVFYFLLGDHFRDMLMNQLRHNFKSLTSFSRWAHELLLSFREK
The experiment is described as follows: Competitive binding affinity to N-terminal Nluc-tagged human succinate receptor 1 expressed in Flp-In-T-REx-293 cells assessed as inhibition constant incubated for 5 mins in the presence of TUG-2465 by BRET assay. The class given is cell-based.

Experiment [2] concerns HEK293T. The experiment is described as follows: Antagonist activity at mouse succinate receptor 1 N181.31E/K2697.32N/G84EL1W mutant expressed in HEK293T cells co-transfected with Galphai-Rluc8/Ggamma8-GFP2/Gbeta3 assessed as inhibition of succinate induced G protein activation incubated for 5 mins by luminescence based BRET assay. The experiment is classed as cell-based. The following applies: filed as antagonist.

Experiment [3] relates to HEK293T. The experiment is described as follows: Antagonist activity at mouse succinate receptor 1 N181.31E/K2697.32N mutant expressed in HEK293T cells co-transfected with Galphai-Rluc8/Ggamma8-GFP2/Gbeta3 assessed as inhibition of succinate induced G protein activation incubated for 5 mins by luminescence based BRET assay. The experiment is classed as cell-based.
A short description of the next experiment: cells. The note with it: Mus musculus, HEK-293T, 5 min, read-out: pEC50 (converted).
Experiment [4] has as its target T2, Succinate receptor 1 (Homo sapiens) (UniProt Q9BXA5).
T2 sequence (whole entry): T1 sequence (Q9BXA5 whole entry)
The following applies: Flp-In-T-REx-293, filed as agonist, time 30.0 min.

Molecules are shown by their SMILES. Activity calls are given as the source filed them. No cut-off for these calls is given here.

Turning to `O=C(O)CCc1cccc(Oc2ccc(Oc3cccc4cnccc34)cc2C(F)(F)F)c1`, the pKi (usually −log10 of the Ki, conventionally taken in molar units) in experiment [1] is less than 4.5. Further, the Ki (in general, a dissociation constant, usually derived from enzyme kinetics or from competition with a known ligand) at Succinate receptor 1 is 7.94 µM.
Consider `CN1CCN(Cc2ccc(-c3cccc(C(=O)Nc4ccccc4CC(=O)O)c3)cc2)CC1`, for which the outcome with HEK293T [2] was Active. Moreover, the outcome in the experiment on HEK293T [3] was inactive.
Regarding `O=C(O)CCC(=O)O` [SUCCINIC ACID], the EC50 in the experiment “cells” is 52.5 µM.
Take `CC(C)(C)OC(=O)NCCCCCCOc1ccc(-c2cccc(C(=O)Nc3ccccc3CC(=O)O)c2)cc1`: the pEC50 entry in experiment [4] was “Active”.
